Assay results as given in paper PMC4955774 (Bioorganic & medicinal chemistry, 2016).
Values after ≈ are worked out from the molar mass of the structure shown. Marks after values point to notes of the source that are not given here. Each block holds one compound with its values, some of them ahead of it.

Key:
[1] = tested on: C. albicans ATCC 90819(R); settings: strain D; MIC-2 for azoles; previously reported; cited from earlier work
[2] = tested on: Aspergillus nidulans ATCC 38163; settings: strain L, filamentous fungus, previously reported; cited from earlier work
[3] = tested on: C. albicans ATCC MYA-1003(R); settings: strain G; MIC-2 for azoles; previously reported; cited from earlier work
[4] = tested on: C. albicans ATCC MYA-1237(R); settings: strain F; MIC-2 for azoles; previously reported; cited from earlier work
C. albicans ATCC 10231 [5] = settings: strain A; MIC-2 for azoles; previously reported; cited from earlier work
C. albicans ATCC 64124 = settings: strain B; MIC-2 for azoles; previously reported; cited from earlier work
[6] = tested on: C. albicans ATCC MYA-2310(S); settings: strain E; MIC-2 for azoles; previously reported; cited from earlier work
[7] = tested on: C. albicans ATCC MYA-2876(S); settings: strain C; MIC-2 for azoles; previously reported; cited from earlier work
C. albicans ATCC 10231 [8] = assay: In vitro antifungal MIC assay, strain A; assay type: cell-based; settings: Candida albicans, ATCC10231, read-out: MIC (MIC-0)
[9] = tested on: 13 fungal strains (yeast and filamentous fungi); assay: In vitro antifungal MIC assay, summary over the whole panel; assay type: cell-based, Candida and Aspergillus strains; settings: summary statement over the 13 strains
[10] = tested on: C. albicans ATCC 64124 (strain B); assay: Antifungal time-kill studies; assay type: cell-based, Candida albicans
[11] = tested on: C. albicans ATCC MYA-2310(S); assay: In vitro antifungal MIC assay, strain E; assay type: cell-based; settings: Candida albicans, read-out: MIC (MIC-0)
[12] = In vitro cytotoxicity assay, A549; assay type: cell-based, mammalian; settings: human
[13] = tested on: C. albicans ATCC MYA-1237(R); assay: In vitro antifungal MIC assay, strain F; assay type: cell-based; settings: Candida albicans, read-out: MIC (MIC-0)
[14] = In vitro cytotoxicity assay, BEAS-2B; assay type: cell-based, mammalian; settings: human
[15] = tested on: C. albicans ATCC MYA-1003(R); assay: In vitro antifungal MIC assay, strain G; assay type: cell-based; settings: Candida albicans, read-out: MIC (MIC-0)
[16] = tested on: C. albicans ATCC MYA-2876(S); assay: In vitro antifungal MIC assay, strain C; assay type: cell-based; settings: Candida albicans, read-out: MIC (MIC-0)
[17] = tested on: C. albicans ATCC 10231 (strain A); assay: ROS assay with DCFH-DA dye; assay type: cell-based, Candida albicans; settings: 1 h at 35 °C
[18] = 1× and 2× respective MIC values

Structure (SMILES): OC(Cn1cncn1)(Cn1cncn1)c1ccc(F)cc1F [FLC, fluconazole]
- MIC (MIC-2) [1]: >125 ^a µg/mL
- MIC (MIC-0) [2]: 62.5 ^a µg/mL
- MIC (MIC-2) [3]: 62.5 ^a µg/mL
- MIC (MIC-2) [4]: 62.5 ^a µg/mL
- MIC (MIC-2) (C. albicans ATCC 10231 [5]): 62.5 ^a µg/mL
- MIC (MIC-2) (C. albicans ATCC 64124): >125 ^a µg/mL
- MIC (MIC-2) [6]: >125 ^a µg/mL
- MIC (MIC-2) [7]: 15.6 ^a µg/mL

Structure (SMILES): CCC(C)n1ncn(-c2ccc(N3CCN(c4ccc(OCC5COC(Cn6cncn6)(c6ccc(Cl)cc6Cl)O5)cc4)CC3)cc2)c1=O (centres unmarked) [ITC, itraconazole]
- MIC (MIC-2) [1]: 31.2 ^a µg/mL
- MIC (MIC-0) [2]: 0.195 ^a µg/mL
- MIC (MIC-2) [3]: 31.2 ^a µg/mL
- MIC (MIC-2) [4]: 31.2 ^a µg/mL
- MIC (MIC-2) (C. albicans ATCC 10231 [5]): 0.5 ^a µg/mL
- MIC (MIC-2) (C. albicans ATCC 64124): >62.5 ^a µg/mL
- MIC (MIC-2) [6]: 31.2 ^a µg/mL
- MIC (MIC-2) [7]: 7.8 ^a µg/mL

Structure (SMILES): CC[C@@H]([C@H](C)O)n1ncn(-c2ccc(N3CCN(c4ccc(OC[C@@H]5CO[C@@](Cn6cncn6)(c6ccc(F)cc6F)C5)cc4)CC3)cc2)c1=O [POS, posaconazole]
- MIC (MIC-2) [1]: 31.2 ^a µg/mL
- MIC (MIC-0) [2]: 0.195 ^a µg/mL
- MIC (MIC-2) [3]: 15.6 ^a µg/mL
- MIC (MIC-2) [4]: 15.6 ^a µg/mL
- MIC (MIC-2) (C. albicans ATCC 10231 [5]): 0.5 ^a µg/mL
- MIC (MIC-2) (C. albicans ATCC 64124): >62.5 ^a µg/mL
- MIC (MIC-2) [6]: 31.2 ^a µg/mL
- MIC (MIC-2) [7]: 7.8 ^a µg/mL

Structure (SMILES): C#CCOc1ccc(-c2nc3ccc(N4CCN(C)CC4)cc3[nH]2)cc1 [Compound 1]
- MIC / antifungal activity over all tested fungal strains [9]: ≥ 31.2 µg/mL

Structure (SMILES): C[C@@H]1[C@H](O)[C@@H](C)/C=C/C=C/C=C/C=C/C=C/C=C/C=C/[C@H](O[C@@H]2O[C@H](C)[C@@H](O)[C@H](N)[C@@H]2O)C[C@@H]2O[C@](O)(C[C@@H](O)C[C@@H](O)[C@H](O)CC[C@@H](O)C[C@@H](O)CC(=O)O[C@H]1C)C[C@H](O)[C@H]2C(=O)O [AmB, amphotericin B]
- Nature of activity in time-kill assay ([10]; 1× MIC): fungicidal
- Time after which fungal cells were completely killed ([10]; 1× MIC): 9 h

Structure (SMILES): C#CCOc1ccc(-c2nc3ccc(-c4nc5ccc(-c6nc7ccc(N8CCN(C)CC8)cc7[nH]6)cc5[nH]4)cc3[nH]2)cc1 [Compound 18]
- MIC / antifungal activity over all tested fungal strains [9]: ≥ 31.2 µg/mL

Structure (SMILES): CN1CCN(c2ccc3[nH]c(-c4ccc5[nH]c(-c6ccc(O)cc6)nc5c4)nc3c2)CC1 [Compound 2]
- MIC [11]: 3.9 to 7.8 µg/mL (≈ 9.19 to 18.4 µM)
- IC50 at 24 h [12]: ≥ 31.2 µg/mL
- MIC [13]: 3.9 to 7.8 µg/mL (≈ 9.19 to 18.4 µM)
- IC50 at 24 h [14]: ≥ 31.2 µg/mL
- MIC [15]: 7.8 to 15.6 µg/mL (≈ 18.4 to 36.7 µM)
- MIC [16]: 7.8 to 15.6 µg/mL (≈ 18.4 to 36.7 µM)
- MIC (C. albicans ATCC 10231 [8]): 7.8 to 15.6 µg/mL (≈ 18.4 to 36.7 µM)
- Intracellular ROS production [17, 18]: significant amount of ROS production
- Nature of activity in time-kill assay ([10]; 1× MIC): fungistatic
- Nature of activity in time-kill assay ([10]; 2× MIC): fungicidal

Structure (SMILES): CCOc1ccc(-c2nc3cc(-c4nc5cc(N6CCN(C)CC6)ccc5[nH]4)ccc3[nH]2)cc1 [Compound 9]
- Intracellular ROS production [17, 18]: significant amount of ROS production
- Nature of activity in time-kill assay ([10]; 1× MIC): fungistatic
- Nature of activity in time-kill assay ([10]; 2× MIC): fungicidal

More lines, main results first:

- MIC (C. albicans ATCC 10231 [8]): 7.8 to 31.2 µg/mL (≈ 16.9 to 67.5 µM)
Structure (SMILES): C#CCOc1ccc(-c2nc3ccc(-c4nc5ccc(N6CCN(C)CC6)cc5[nH]4)cc3[nH]2)cc1 [Compound 14]

- MIC / antifungal activity over all tested fungal strains [9]: inactive
Structure (SMILES): CCCN1CCN(c2ccc3nc(-c4ccc5nc(-c6ccc(OCC)cc6)[nH]c5c4)[nH]c3c2)CC1 [Compound 11]

- MIC / antifungal activity over all tested fungal strains [9]: complete loss of antifungal activity
Structure (SMILES): CCCCCCCCCCCCOc1ccc(-c2nc3ccc(-c4nc5ccc(N6CCN(C)CC6)cc5[nH]4)cc3[nH]2)cc1 [Compound 13]

- MIC / antifungal activity over all tested fungal strains [9]: no activity
Structure (SMILES): CCCCCCCCCCCCN1CCN(c2ccc3nc(-c4ccc5nc(-c6ccc(O)cc6)[nH]c5c4)[nH]c3c2)CC1 [Compound 4]
- Intracellular ROS production ([17]; 8 and 16 µg/mL): no ROS accumulation

- MIC / antifungal activity over all tested fungal strains [9]: inactive
Structure (SMILES): CCCCCN1CCN(c2ccc3nc(-c4ccc5nc(-c6ccc(OCC)cc6)[nH]c5c4)[nH]c3c2)CC1 [Compound 12]
